Legend:
dog [1] = settings: Subchronic oral toxicity in nonrodent, beagle, Capsule, dose end: 90 day
dog [2] = settings: Chronic toxicity, beagle, Oral, Capsule, dose end: 12 month
mouse [3] = settings: Carcinogenicity, cd1, Oral, Feed, dose end: 102 week, group: systemic
rat [4] = settings: Combined chronic toxicity/carcinogenicity, other, Oral, Feed, dose end: 104 week
rat [5] = settings: Subchronic oral toxicity in rodents, sprague dawley, Feed, dose end: 13 week
rat [6] = settings: Prenatal developmental toxicity study, long evans, Oral, Gavage/Intubation, dose end: 15 GD
mouse [7] = settings: Carcinogenicity, b6c3f1, Oral, Water, dose end: 104 week, group: systemic
rat [8] = settings: Sub-acute repeat dose toxicity; sprague dawley; Oral; Water; dose end: 14 day; group: systemic; systemic / in life observation / body weight / body weight + systemic / in life observation / food consumption / food consumption + systemic…
rat [9] = settings: Subchronic oral toxicity in rodents, sprague dawley, Water, dose end: 90 day, group: systemic
[10] = group: cholinesterase, cholinesterase / cholinesterase / cholinesterase / plasma cholinesterase (che)
[11] = group: cholinesterase, cholinesterase / cholinesterase / cholinesterase / plasma cholinesterase (che) + cholinesterase / cholinesterase / cholinesterase / brain …
[12] = group: systemic, systemic / pathology microscopic / adrenal gland / cytoplasmic alteration + systemic / pathology microscopic / adrenal gland / hypertrophy
[13] = group: systemic, systemic / clinical chemistry / alanine aminotransferase (alt/sgpt) / alanine aminotransferase (alt/sgpt)
[14] = group: systemic, systemic / clinical chemistry / alanine aminotransferase (alt/sgpt) / alanine aminotransferase (alt/sgpt) + systemic / hematology / …
[15] = systemic / pathology microscopic / adrenal gland / pigmentation
[16] = systemic / pathology microscopic / adrenal gland / pigmentation + systemic / in life observation / body weight / body weight + systemic / in…
[17] = group: cholinesterase, cholinesterase / cholinesterase / cholinesterase / erythrocyte cholinesterase (che)
[18] = group: systemic, systemic / hematology / erythrocyte (rbc) count differential / erythrocyte (rbc) + systemic / hematology / hematocrit (hct) / hematocrit (…
[19] = group: systemic, systemic / urinalysis / volume / volume
[20] = group: systemic, systemic / pathology microscopic / adrenal gland / vacuolization cytoplasmic
[21] = group: developmental, developmental / developmental malformation / bone / [other] + developmental / developmental malformation / general / crown-rump length + …
[22] = group: developmental, developmental / developmental malformation / general / crown-rump length + developmental / developmental malformation / all gross anomalies…
[23] = group: maternal, reproductive / reproductive performance / implantations / implantations + reproductive / reproductive performance / postimplantation loss / …
[24] = group: maternal, systemic / organ weight / kidney / absolute + systemic / organ weight / spleen / absolute
[25] = systemic / pathology microscopic / liver / adenoma + systemic / pathology microscopic / liver / adenoma/carcinoma combined + systemic / …
[26] = systemic / pathology microscopic / liver / focal cellular change
[27] = systemic / in life observation / water consumption / water consumption
[28] = systemic / in life observation / water consumption / water consumption + systemic / in life observation / body weight / body weight + …

## CCOP(=O)(SC(C)CC)N1CCSC1=O (stereo unspecified) [Fosthiazate]
Dog [1]; [10]
  LEL: 0.11 mg/kg/day
  LOAEL: 0.11 mg/kg/day
Dog [1]; [11]
  NEL: 0.054 mg/kg/day
  NOAEL: 0.054 mg/kg/day
Dog [1]; [12]
  LEL: 0.11 mg/kg/day
  LOAEL: 0.11 mg/kg/day
  NEL: 0.054 mg/kg/day
  NOAEL: 0.054 mg/kg/day
Dog [2]; [10]
  LEL: 0.5 mg/kg/day
  LOAEL: 0.5 mg/kg/day
  NEL: 0.1 mg/kg/day
  NOAEL: 0.1 mg/kg/day
Dog [2]; [13]
  LEL: 0.5 mg/kg/day
  LOAEL: 0.5 mg/kg/day
Dog [2]; [14]
  NEL: 0.1 mg/kg/day
  NOAEL: 0.1 mg/kg/day
Mouse [3]; [15]
  LEL: 10.4 mg/kg/day
  LOAEL: 10.4 mg/kg/day
Mouse [3]; [16]
  NEL: 3.2 mg/kg/day
  NOAEL: 3.2 mg/kg/day
Rat [4]; [17]
  LEL: 0.051 mg/kg/day
  LOAEL: 0.38 mg/kg/day
  NEL: < 0.051 mg/kg/day
Rat [4]; group: cholinesterase, cholinesterase / cholinesterase / cholinesterase / erythrocyte cholinesterase (che) + cholinesterase / cholinesterase / cholinesterase / …
  NOAEL: 0.039 mg/kg/day
Rat [4]; [18]
  LOAEL: 2.45 mg/kg/day
  NOAEL: 0.5 mg/kg/day
Rat [4]; [19]
  LEL: 0.039 mg/kg/day
  NEL: < 0.039 mg/kg/day
Rat [5]; [17]
  LEL: 0.09 mg/kg/day
  LOAEL: 0.09 mg/kg/day
  NEL: < 0.09 mg/kg/day
  NOAEL: < 0.09 mg/kg/day
Rat [5]; [20]
  LEL: 0.08 mg/kg/day
  LOAEL: 0.08 mg/kg/day
  NEL: < 0.08 mg/kg/day
  NOAEL: < 0.08 mg/kg/day

## O=C(O)C(Cl)(Cl)Cl [Trichloroacetic acid]
Rat [6]; [21]
  LOAEL: > 1800 mg/kg/day
  NOAEL: ≥ 1800 mg/kg/day
Rat [6]; [22]
  LEL: 330 mg/kg/day
  NEL: < 330 mg/kg/day
Rat [6]; [23]
  LOAEL: > 1800 mg/kg/day
  NOAEL: ≥ 1800 mg/kg/day
Rat [6]; [24]
  LEL: 330 mg/kg/day
  NEL: < 330 mg/kg/day
Mouse [7]; [25]
  LOAEL: > 572 mg/kg/day
  NOAEL: ≥ 572 mg/kg/day
Mouse [7]; [26]
  LEL: 6 mg/kg/day
  NEL: < 6 mg/kg/day
Rat [8]
  LEL: 119 mg/kg/day
  LOAEL: > 119 mg/kg/day
  NEL: 31.6 mg/kg/day
  NOAEL: ≥ 119 mg/kg/day
Rat [9]; [27]
  LEL: 4.1 mg/kg/day
  NEL: < 4.1 mg/kg/day
Rat [9]; [28]
  LOAEL: > 355 mg/kg/day
  NOAEL: ≥ 355 mg/kg/day

Reference: EPA's ToxRefDB 2
